In ChEMBL document CHEMBL1817546, “The synthesized novel fluorinated compound (LJJ-10) induces death receptor- and mitochondria-dependent apoptotic cell death in the human osteogenic sarcoma U-2 OS cells” (Eur J Med Chem, 2011) one finds IC50 data, which are given here for 24 compounds.

Type in all cases: functional, cell-based
The test system of one assay is HL-60. The assay is described as follows: Cytotoxicity against human HL60 cells after 48 hrs by MTT assay. To be noted: HL-60, 48 h.
The subject of the next assay is U-937. Put plainly: Cytotoxicity against human U937 cells after 48 hrs by MTT assay. To be noted: U-937, 48 h.
Assay [1] in a line: Cytotoxicity against human HT29-AK cells after 48 hrs by MTT assay.
The subject of another assay is COLO 205. The assay is described as follows: Cytotoxicity against human COLO205 cells after 48 hrs by MTT assay. To be noted: COLO 205, 48 h.
The subject of the next assay is U2OS. Put plainly: Cytotoxicity against human U2OS cells after 48 hrs by MTT assay.
The next assay has as its system MCF7. The assay is described as follows: Cytotoxicity against human MCF7 cells after 48 hrs by MTT assay. To be noted: MCF7, 48 h.
For a further assay, the system named is MDA-MB-231. The assay is described as follows: Cytotoxicity against human MDA-MB-231 cells after 48 hrs by MTT assay. To be noted: MDA-MB-231, 48 h.

Some results are limits rather than exact numbers.

`Nc1cccc(Nc2nc(-c3cccc(F)c3)nc3ccc(F)cc23)c1`: the IC50 is above 50 µM in the assay on HL-60; above 50 µM with U-937; above 50 µM in assay [1]; above 50 µM in the assay with COLO 205; 49.6 µM in the assay with U2OS; above 50 µM in the assay with MCF7. In the assay on MDA-MB-231, this compound registered an IC50 above 50 µM.

For `Oc1cccc(Nc2nc(-c3cccc(F)c3)nc3ccc(F)cc23)c1`, the IC50 with HL-60 was above 50 µM; with U-937, above 50 µM; in assay [1], above 50 µM; with COLO 205, above 50 µM; with U2OS, 33.3 µM; with MCF7, above 50 µM. Further, the IC50 with MDA-MB-231 was above 50 µM.

Regarding `Fc1cccc(-c2nc(Nc3cccc(Br)c3)c3cc(F)ccc3n2)c1`, the IC50 (in the assay on HL-60; in the assay with U-937; in assay [1]; in the assay with COLO 205; in the assay with U2OS; with MCF7) was above 50 µM in each case. In the assay on MDA-MB-231, this compound displayed an IC50 above 50 µM.

For `Cc1ccccc1Nc1nc(-c2cccc(F)c2)nc2ccc(F)cc12`, the half-inhibitory concentration (IC50) (in the assay on HL-60; in the assay with U-937; in assay [1]; in the assay on COLO 205; with U2OS; in the assay with MCF7) was above 50 µM throughout. In the assay on MDA-MB-231, this compound displayed an IC50 above 50 µM.

With `Fc1cccc(-c2nc(Nc3ccccc3F)c3cc(F)ccc3n2)c1`, the half-maximal inhibitory concentration (IC50) (in the assay with HL-60; in the assay on U-937; in assay [1]; in the assay on COLO 205; in the assay with U2OS; in the assay on MCF7) was above 50 µM in each case. Also, in the assay with MDA-MB-231, the IC50 was above 50 µM.

Turning to `Nc1ccc(Nc2nc(-c3cccc(F)c3)nc3ccc(F)cc23)cc1`, the IC50 in the assay with HL-60 is above 50 µM; in the assay with U-937, above 50 µM; in assay [1], above 50 µM; with COLO 205 it was above 50 µM; in the assay on U2OS it was 44.1 µM; in the assay on MCF7, above 50 µM. Besides, in the assay on MDA-MB-231, the IC50 was above 50 µM.

Consider `Oc1ccccc1Nc1nc(-c2cccc(F)c2)nc2ccc(F)cc12`, for which the IC50 in the assay on HL-60 is 44.4 µM; in the assay with U-937 it was 46.2 µM; in assay [1] it was above 50 µM; in the assay on COLO 205, above 50 µM; in the assay on U2OS it was 41.4 µM; in the assay on MCF7, above 50 µM. The compound also gave an IC50 with MDA-MB-231 above 50 µM.

Turning to `Fc1cccc(-c2nc(Nc3ccccc3)c3cc(F)ccc3n2)c1`, the IC50 in the assay with HL-60 came out at 48.3 µM; in the assay on U-937, 45.5 µM; in assay [1], 48.3 µM; in the assay with COLO 205, 49.7 µM; in the assay on U2OS it was 47.6 µM; in the assay on MCF7, 49.7 µM. In the assay on MDA-MB-231, this compound registered an IC50 of 47.8 µM.

Regarding `Fc1cccc(-c2nc(Nc3ccccc3Cl)c3cc(F)ccc3n2)c1`, the concentration for half-maximal inhibition (IC50) (with HL-60; in the assay on U-937; in assay [1]; in the assay on COLO 205; in the assay with U2OS; in the assay on MCF7) was above 50 µM each time. In the assay with MDA-MB-231, this compound gave an IC50 above 50 µM.

`c1ccc(Nc2nc(-c3ccccc3)nc3ccccc23)cc1`: the IC50 (in the assay with HL-60; with U-937; in assay [1]; in the assay with COLO 205; in the assay with U2OS; in the assay on MCF7) was above 50 µM in each case. The IC50 in the assay with MDA-MB-231 was above 50 µM.

As to `Fc1cccc(-c2nc(Nc3ccccc3Br)c3cc(F)ccc3n2)c1`, the IC50 (in the assay on HL-60; in the assay with U-937; in assay [1]; in the assay on COLO 205; in the assay with U2OS; in the assay with MCF7) was above 50 µM in each case. In the assay on MDA-MB-231, the concentration for half-maximal inhibition (IC50) is above 50 µM.

For the compound `Fc1cccc(-c2nc(Nc3cccc(Cl)c3)c3cc(F)ccc3n2)c1`, the IC50 (in the assay on HL-60; in the assay on U-937; in assay [1]; with COLO 205; in the assay on U2OS; with MCF7) was above 50 µM in each case. For the same compound, the IC50 in the assay with MDA-MB-231 is above 50 µM.

In the case of `Fc1cccc(-c2nc(Nc3ccc(Br)cc3)c3cc(F)ccc3n2)c1`, the IC50 (with HL-60; with U-937; in assay [1]; with COLO 205; in the assay on U2OS; with MCF7) was above 50 µM each time. For the same compound, the IC50 in the assay on MDA-MB-231 is above 50 µM.

Consider `Oc1ccc(Nc2nc(-c3cccc(F)c3)nc3ccc(F)cc23)cc1`, for which the half-maximal inhibitory concentration (IC50) (in the assay on HL-60; in the assay on U-937; in assay [1]; in the assay on COLO 205; with U2OS; in the assay with MCF7) was above 50 µM throughout. This compound also had a half-inhibitory concentration (IC50) in the assay on MDA-MB-231 above 50 µM.

Take `Cc1cccc(Nc2nc(-c3cccc(F)c3)nc3ccc(F)cc23)c1`: the IC50 (in the assay on HL-60; in the assay on U-937; in assay [1]; with COLO 205; in the assay with U2OS; in the assay with MCF7) was above 50 µM each time. Besides, the IC50 in the assay on MDA-MB-231 was above 50 µM.

For `Fc1cccc(-c2nc(Nc3ccccc3)c3ccccc3n2)c1`, the IC50 (in the assay on HL-60; in the assay with U-937; in assay [1]; in the assay on COLO 205; in the assay with U2OS; in the assay on MCF7) was above 50 µM each time. In the assay on MDA-MB-231, the concentration for half-maximal inhibition (IC50) is above 50 µM.

As for `Fc1cccc(-c2nc(Nc3ccc(Cl)cc3)c3cc(F)ccc3n2)c1`, the IC50 in the assay with HL-60 was 45.7 µM; in the assay with U-937, 32.6 µM; in assay [1] it was 40.3 µM; in the assay on COLO 205 it was 32.6 µM; in the assay with U2OS it was 38.4 µM; in the assay on MCF7, above 50 µM. Also, the IC50 with MDA-MB-231 is above 50 µM.

With `Fc1ccc2nc(-c3ccccc3)nc(Nc3ccccc3)c2c1`, the half-inhibitory concentration (IC50) (in the assay with HL-60; in the assay with U-937; in assay [1]; in the assay with COLO 205; in the assay on U2OS; in the assay on MCF7) was above 50 µM in each case. For the same compound, the IC50 with MDA-MB-231 is above 50 µM.

Consider `COc1ccccc1Nc1nc(-c2cccc(F)c2)nc2ccc(F)cc12`, for which the half-maximal inhibitory concentration (IC50) (in the assay with HL-60; in the assay with U-937; in assay [1]; in the assay with COLO 205; in the assay on U2OS; in the assay with MCF7) was above 50 µM in each case. In the assay with MDA-MB-231, this compound showed a 50% inhibitory concentration (IC50) above 50 µM.

Consider `Cc1ccc(Nc2nc(-c3cccc(F)c3)nc3ccc(F)cc23)cc1`, for which the IC50 (with HL-60; in the assay on U-937; in assay [1]; in the assay on COLO 205; in the assay on U2OS; in the assay on MCF7) was above 50 µM throughout. Also, the IC50 in the assay on MDA-MB-231 was above 50 µM.

As for `Nc1ccccc1Nc1nc(-c2cccc(F)c2)nc2ccc(F)cc12`, the IC50 with HL-60 is 41.3 µM; with U-937 it was 47.2 µM; in assay [1], above 50 µM; in the assay with COLO 205, above 50 µM; with U2OS it was 37.9 µM; with MCF7, above 50 µM. In addition, in the assay with MDA-MB-231, the IC50 was above 50 µM.

With `Fc1cccc(Nc2nc(-c3cccc(F)c3)nc3ccc(F)cc23)c1`, the IC50 with HL-60 is 43.1 µM; in the assay on U-937 it was 42.3 µM; in assay [1] it was above 50 µM; with COLO 205, above 50 µM; in the assay on U2OS, 49.6 µM; in the assay with MCF7, 48.7 µM. Half-maximal inhibition with MDA-MB-231 (IC50) required 47.6 µM.

As for `COc1ccc(Nc2nc(-c3cccc(F)c3)nc3ccc(F)cc23)cc1`, the IC50 was 38.6 µM with HL-60; 41.1 µM in the assay with U-937; 42.3 µM in assay [1]; 46.8 µM in the assay on COLO 205; 32.3 µM in the assay on U2OS; 48.4 µM in the assay with MCF7. Moreover, the IC50 in the assay with MDA-MB-231 is 47.3 µM.

On to `Fc1ccc(Nc2nc(-c3cccc(F)c3)nc3ccc(F)cc23)cc1`, for which the IC50 (with HL-60; in the assay with U-937; in assay [1]; in the assay with COLO 205; in the assay with U2OS; in the assay with MCF7) was above 50 µM throughout. In the assay with MDA-MB-231, the IC50 is above 50 µM.
